The experiment concerns S. aureus Becker. The experiment is described as follows: Combination treatment vancomycin and mAb in cannulated rats, catheter bacteria load. It is filed as in vivo. The conditions noted are these: for Catheter CFU Exp#1 / Catheter CFU Exp#2: 24 hours. Here is the method: Cannulated rats were given vancomycin (20 mpk) sub. cu. at 1 hour (1 H) prior to iv challenge with 2−4×10^9 CFU of S. aureus Becker. At 1 H post challenge, the rats were injected with 6 mg/rat of either the mAb CS-D6, an isotype control mAb 20C2HA, or PBS. At 24 hours post challenge, the animals were sacrificed, the jugular vein catheters harvested and evaluated for the bacteria load on the catheter. Evaluation of catheters was performed by placement in selective broth medium, and outgrowth on the Piccolo incubation system. Outgrowth was compared to standard curves of S. aureus growth under the same conditions to calculate the number of CFU on the experimental catheters. In the first set of experiments (Table 15), small numbers of animals were used to test the system. In the second set of experiments (Table 16), larger numbers of rats were used. […] This model was designed to simulate a clinical situation in which a patient is undergoing surgery or other invasive procedure, and getting an empiric or prophylactic antibiotic. In the model, the mAb was injected after bacteria exposure, simulating adjunctive mAb treatment for infection during surgery.

The mark [1] stands for this setting: Table 15, individual rats, vancomycin 20 mpk sub. cu. 1 H prior, 6 mg/rat mAb 1 H post challenge.
Setting [2] is: Table 16, individual rats, larger numbers of rats, vancomycin 20 mpk, 6 mg/rat mAb.

Values joined by “and” are separate entries in the source; they are usually repeats but may differ in a detail not shown here. Equal values may be shown once.

The text below walks through data of US20100166772A1, “ANTIGEN-BINDING PROTEINS TARGETING S. AUREUS ORF0657n” (priority 2007, published 2010).

On to `CN[C@H](CC(C)C)C(=O)N[C@H]1C(=O)N[C@@H](CC(N)=O)C(=O)N[C@H]2C(=O)N[C@H]3C(=O)N[C@H](C(=O)N[C@H](C(=O)O)c4cc(O)cc(O)c4-c4cc3ccc4O)[C@H](O)c3ccc(c(Cl)c3)Oc3cc2cc(c3O[C@@H]2O[C@H](CO)[C@@H](O)[C@H](O)[C@H]2O[C@H]2C[C@](C)(N)[C@H](O)[C@H](C)O2)Oc2ccc(cc2Cl)[C@H]1O` [Vancomycin + PBS, vancomycin], for which the “Catheter CFU Exp#1” value was 0 CFU and 38,725,264 CFU under setting [1]; 64 CFU and 309 CFU and 973 CFU and 5,015 CFU and 5,108 CFU and 7,353,005 CFU under setting [2]. Further, the “Catheter CFU Exp#2” value reads like this: under setting [1], 0 CFU (3×) and 217 CFU; under setting [2], 0 CFU and 63 CFU (2×) and 291 CFU and 6,517,926 CFU and 7,829,527 CFU. Moreover, the “Catheter CFU Geo mean” value reads like this: (Table 16, catheters with no outgrowth assigned value of 10) 3,368 CFU; (in vivo) 45 CFU.
